Reference: US12655116B2, “Substituted isophthalic acid diamides” (Bayer Aktiengesellschaft, priority 2020, dated 2026)

What was measured:
AMARE [1] = assay: Pre-emergence herbicidal action against AMARE; format: in vivo, Amaranthus retroflexus
How it was run: (§1)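 Sandy loam pots, seeds covered with soil, then surface-treated with WP or EC formulations at 600–800 l/ha water plus 0.2% wetting agent. Greenhouse, 3 weeks. Percent damage vs untreated controls.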

ALOMY [2] = assay: Pre-emergence herbicidal action against ALOMY; format: in vivo, Alopecurus myosuroides; details: 80 g/ha, pre-emergence, scored visually after 3 weeks vs untreated controls (100% = plants have died, 0% = like control plants)
How it was run: as §1

PHBPU = assay: Post-emergence herbicidal action against PHBPU; format: in vivo, Pharbitis purpurea
How it was run: (§2)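 Herbicidal action is a visual percentage rating (0% = as untreated control, 100% = plants dead) made roughly 3 weeks after treatment. Plants were grown in sandy loam in the greenhouse and treated at the one-leaf stage, 2 to 3 weeks post-sowing. Treatment was a foliar spray of wettable-powder or emulsion-concentrate formulations at 600 to 800 l/ha water plus 0.2% wetting agent.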

VIOTR [3] = assay: Pre-emergence herbicidal action against VIOTR; format: in vivo, Viola tricolor
How it was run: as §1

ECHCG [4] = assay: Pre-emergence herbicidal action against ECHCG; format: in vivo, Echinochloa crus-galli
How it was run: as §1

VERPE [5] = assay: Post-emergence herbicidal action against VERPE; format: in vivo, Veronica persica; details: 20 g/ha
Procedure: (§3) Seeds of monocotyledonous and dicotyledonous weed and crop plants are laid out in sandy loam soil in wood-fiber pots, covered with soil and cultivated in a greenhouse under good growth conditions. 2 to 3 weeks after sowing, the test plants are treated at the one-leaf stage. The compounds of the invention, formulated in the form of wettable powders (WP) or as emulsion concentrates (EC), are then sprayed onto the green parts of the plants in the form of an aqueous suspension or emulsion at a water application rate equivalent to 600 to 800 l/ha, with addition of 0.2% wetting agent. After the test plants have been left to stand in the greenhouse under optimal growth conditions for about 3 weeks, the action of the preparations is assessed visually in comparison to untreated controls (herbicidal action in percent (%): 100% activity=the plants have died, 0% activity=like control plants). […] The tables below illustrate, in an illustrative manner, the post-emergence herbicidal action of the compounds of the invention, the herbicidal activity being stated in percent.

ECHCG [6] = assay: Post-emergence herbicidal action against ECHCG; format: in vivo, Echinochloa crus-galli
How it was run: as §2

DIGSA [7] = assay: Pre-emergence herbicidal action against DIGSA; format: in vivo, Digitaria sanguinalis
How it was run: as §1

SETVI [8] = assay: Pre-emergence herbicidal action against SETVI; format: in vivo, Setaria viridis
How it was run: as §1

MATIN [9] = assay: Pre-emergence herbicidal action against MATIN; format: in vivo, Matricaria inodora
How it was run: as §1

VIOTR [10] = assay: Post-emergence herbicidal action against VIOTR; format: in vivo, Viola tricolor; details: 20 g/ha
Procedure: as §3

SETVI [11] = assay: Post-emergence herbicidal action against SETVI; format: in vivo, Setaria viridis; details: dosage 20 g/ha
How it was run: as §2

AMARE [12] = assay: Post-emergence herbicidal action against AMARE; format: in vivo, Amaranthus retroflexus; details: 20 g/ha, visual assessment about 3 weeks after treatment, 100% = plants have died, 0% = like control plants
How it was run: as §2

DIGSA [13] = assay: Post-emergence herbicidal action against DIGSA; format: in vivo, Digitaria sanguinalis; details: for Post-emergence action against DIGSA: 20 g/ha
Procedure: as §3

ABUTH [14] = assay: Pre-emergence herbicidal action against ABUTH; format: in vivo, Abutilon theophrasti; details: for Pre-emergence action against ABUTH (herbicidal activity): 80 g/ha, scored visually after 3 weeks vs untreated controls (100% = plants have died, 0% = like control plants); for Pre-emergence action against ABUTH (herbicidal activity in percent): dosage 20 g/ha, scored visually after 3 weeks vs untreated controls, 100% = plants have died, 0% = like control plants
How it was run: as §1

MATIN [15] = assay: Post-emergence herbicidal action against MATIN; format: in vivo, Matricaria inodora; details: dosage 20 g/ha
Procedure: as §3

VERPE [16] = assay: Pre-emergence herbicidal action against VERPE; format: in vivo, Veronica persica; details: dosage 80 g/ha
Description: (§4) Seeds of monocotyledonous and dicotyledonous weed plants and crop plants are laid out in sandy loam soil in wood-fiber pots and covered with soil. The compounds of the invention, formulated in the form of wettable powders (WP) or as emulsion concentrates (EC), are then applied to the surface of the covering soil in the form of an aqueous suspension or emulsion at a water application rate equivalent to 600 to 800 l/ha, with addition of 0.2% wetting agent. After the treatment, the pots are placed in a greenhouse and kept under good growth conditions for the trial plants. The damage to the test plants is scored visually after a test period of 3 weeks by comparison with untreated controls (herbicidal activity in percent (%): 100% activity=the plants have died, 0% activity=like control plants). […] The tables below illustrate, in an illustrative manner, the post-emergence herbicidal action of the compounds of the invention, the herbicidal activity being stated in percent.

AVEFA = assay: Pre-emergence herbicidal action against AVEFA; format: in vivo, Avena fatua; details: 80 g/ha, pre-emergence
Description: as §4

ABUTH [17] = assay: Post-emergence herbicidal action against ABUTH; format: in vivo, Abutilon theophrasti; details: visual assessment about 3 weeks after treatment vs untreated controls
How it was run: as §2

ALOMY [18] = assay: Post-emergence herbicidal action against ALOMY; format: in vivo, Alopecurus myosuroides; details: dosage 20 g/ha, visual assessment about 3 weeks after treatment vs untreated controls
Procedure: as §3

[19] = 20 g/ha, scored visually after 3 weeks vs untreated controls, 100% = plants have died, 0% = like control plants
[20] = 80 g/ha, scored visually after 3 weeks vs untreated controls (100% = plants have died, 0% = like control plants)

SMILES | Pre-emergence action against AMARE in % (AMARE [1]; [19]) | Pre-emergence action against AMARE in % (AMARE [1]; [20]) | Pre-emergence action against ALOMY (herbicidal activity) (ALOMY [2]) | Post-emergence action against PHBPU in % (PHBPU; dosage 20 g/ha) | Pre-emergence action against VIOTR in % (VIOTR [3]; dosage 80 g/ha) | Pre-emergence action against ECHCG in % (ECHCG [4]; 80 g/ha) | Post-emergence action against VERPE in % (VERPE [5]) | Post-emergence action against ECHCG in % (ECHCG [6]; dosage 20 g/ha) | Pre-emergence action against DIGSA in % (DIGSA [7]; dosage 80 g/ha) | Pre-emergence action against SETVI in % (SETVI [8]; dosage 80 g/ha) | Pre-emergence action against MATIN in % (MATIN [9]; dosage 80 g/ha) | Post-emergence action against SETVI in % (SETVI [11]) | Post-emergence action at 20 g/ha against AMARE in % (AMARE [12]) | Pre-emergence action against ABUTH (herbicidal activity) (ABUTH [14]) | Pre-emergence action against ABUTH (herbicidal activity in percent) (ABUTH [14]) | Post-emergence action against MATIN in % (MATIN [15]) | Pre-emergence action against MATIN in % (MATIN [9]; dosage 20 g/ha) | Post-emergence action against ABUTH in % (ABUTH [17]; dosage 20 g/ha) | Post-emergence action against ALOMY in % (ALOMY [18]) | further results
Cc1c(C(=O)Nc2nnnn2C)ccc(C(F)(F)F)c1C(=O)NCC1CCCO1 (centres unmarked) [Example 1-37] | 100% | 100% | 100% | 80% | 100% | 80% | 80% | 80% | 100% | 100% | 90% |  |  |  |  |  |  |  |  | Post-emergence action against ECHCG in % (ECHCG [6]; dosage 5 g/ha): 80%; Pre-emergence action against DIGSA in % (DIGSA [7]; dosage 20 g/ha): 80%; Pre-emergence action against SETVI in % (SETVI [8]; dosage 20 g/ha): 90%; Post-emergence action against VIOTR in % (VIOTR [10]): 80%
Cc1nnc(NC(=O)c2ccc(C(F)(F)F)c(C(=O)NC(C)C3CC3)c2Cl)o1 (centres unmarked) [Example 6-254] | 100% | 100% | 90% | 80% | 90% | 100% | 80% | 90% | 100% | 80% | 100% | 80% | 100% | 100% | 100% | 80% | 80% | 80% |  | Post-emergence action against DIGSA in % (DIGSA [13]; 5 g/ha): 80%; Post-emergence action against DIGSA (DIGSA [13]): 90%; Pre-emergence action against ECHCG in % (ECHCG [4]; 20 g/ha): 90%; Pre-emergence action against DIGSA in % (DIGSA [7]; dosage 20 g/ha): 90%; Pre-emergence action against VERPE in % (VERPE [16]): 100%; Pre-emergence action against AVEFA in % (AVEFA): 90%
CCn1nnnc1NC(=O)c1ccc(C(F)F)c(C(=O)NCC(=O)N(C)C)c1Cl [Example 2-160] | 100% | 100% |  |  | 100% |  |  |  |  |  | 90% |  | 100% | 90% |  |  |  | 90% | 80% | Pre-emergence action against VERPE in % (VERPE [16]): 80%
CCn1nnnc1NC(=O)c1ccc(C(F)(F)F)c(C(=O)NCC(F)(F)F)c1Br [Example 2-211] | 100% | 100% | 90% | 80% | 80% | 90% |  | 80% |  | 100% | 100% | 90% | 90% | 100% | 100% | 80% | 90% | 80% | 80% | Post-emergence action against PHBPU in % (PHBPU; dosage 5 g/ha): 80%; Post-emergence action against DIGSA (DIGSA [13]): 80%; Pre-emergence action against AVEFA in % (AVEFA): 80%; Post-emergence action against ABUTH in % (ABUTH [17]; dosage 5 g/ha): 80%
CCNC(=O)c1c(OC)ccc(C(=O)Nc2nnnn2CC)c1Cl [Example 2-353] | 100% | 100% | 90% | 80% | 100% |  | 100% |  |  |  | 100% |  | 100% | 100% |  | 80% | 90% | 100% |  | Post-emergence action against PHBPU in % (PHBPU; dosage 5 g/ha): 80%; Pre-emergence action against VIOTR in % (VIOTR [3]; dosage 20 g/ha): 90%; Post-emergence action against ABUTH in % (ABUTH [17]; dosage 5 g/ha): 90%; Post-emergence action against VIOTR in % (VIOTR [10]): 80%
Cc1nnc(NC(=O)c2ccc(C(F)(F)F)c(C(=O)NCC3CC3)c2Br)o1 [Example 6-161] | 100% | 100% | 90% | 80% | 80% | 100% |  | 90% |  | 100% | 100% | 90% | 100% | 100% | 100% |  | 100% | 90% | 90% | Pre-emergence action against ECHCG in % (ECHCG [4]; 20 g/ha): 80%; Post-emergence action against ECHCG in % (ECHCG [6]; dosage 5 g/ha): 90%
CCn1nnnc1NC(=O)c1ccc(C(F)(F)F)c(C(=O)NCC#N)c1C [Example 2-36] | 100% | 100% |  |  | 100% |  |  |  | 90% |  | 90% |  | 90% | 100% | 90% |  |  |  | 90% | 
CN(C)C(=O)CNC(=O)c1c(C(F)F)ccc(C(=O)Nc2nnnn2C)c1Cl [Example 1-160] | 100% | 100% |  |  | 80% |  |  |  |  |  | 80% |  | 100% | 80% |  |  |  |  | 80% | 
CCn1nnnc1NC(=O)c1ccc(C(F)(F)F)c(C(=O)NCC(=O)N(C)C)c1Cl [Example 2-142] |  | 100% |  |  | 100% |  |  |  |  |  | 100% |  | 100% |  |  |  | 80% |  | 80% | 
